pIC50: −log10 of the molar value.
Molecular target: T1, Protein kinase C iota type (Homo sapiens, UniProt P41743)
T1 sequence (P41743 whole entry): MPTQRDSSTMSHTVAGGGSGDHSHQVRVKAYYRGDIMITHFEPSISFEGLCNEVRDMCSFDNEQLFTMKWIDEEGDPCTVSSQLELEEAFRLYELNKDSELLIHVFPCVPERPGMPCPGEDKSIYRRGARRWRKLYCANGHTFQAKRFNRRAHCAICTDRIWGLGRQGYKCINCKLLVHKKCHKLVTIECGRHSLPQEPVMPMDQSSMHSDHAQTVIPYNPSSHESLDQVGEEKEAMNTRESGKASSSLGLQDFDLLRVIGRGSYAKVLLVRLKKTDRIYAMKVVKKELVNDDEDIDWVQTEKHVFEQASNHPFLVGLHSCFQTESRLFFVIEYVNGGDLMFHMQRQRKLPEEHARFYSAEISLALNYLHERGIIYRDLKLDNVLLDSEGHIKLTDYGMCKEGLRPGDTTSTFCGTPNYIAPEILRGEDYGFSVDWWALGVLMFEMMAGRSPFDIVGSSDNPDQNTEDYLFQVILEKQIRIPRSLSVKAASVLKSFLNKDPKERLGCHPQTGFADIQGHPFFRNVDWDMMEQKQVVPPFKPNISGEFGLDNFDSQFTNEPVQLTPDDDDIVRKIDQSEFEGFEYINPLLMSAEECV
Test: Inhibition of recombinant human PKC-iota kinase domain expressed in Sf21 cells using FAM-PKCs pseudopeptide derived peptide substrate and 25 uM ATP by fluorescence polarization based IMAP assay

Compared with `C[C@H](N)CNc1nc(-c2ccncc2)nc2sc3c(c12)CCCC3`, `Cc1ccc(CN2CCN(c3nc(-c4ccncc4)nc4sc5c(c34)CCCC5)CC2)cc1` is lower in pIC50: > 7.00 for the first, ≤ 5.00 for the second.

`Cc1csc2nc(-c3ccncc3)nc(N3CCNCC3)c12` and `Cc1csc2c(NC[C@@H](N)Cc3ccccc3)nc(-c3ccncc3)nc12` cannot be ordered by pIC50: > 7.00 for the first, > 7.00 for the second.

Molecular target: T1, Protein kinase C iota type
Test: Inhibition of recombinant full-length human PKC-iota expressed in Sf21 cells using FAM-PKCs pseudopeptide derived peptide substrate and 150 uM ATP by fluorescence polarization based IMAP assay

First: CCC[C@@H](O)[C@H](O)C#Cc1csc2c(NC[C@@H](N)Cc3ccccc3)nc(-c3ccncc3)nc12
Second: CC[C@H](O)C#Cc1csc2c(NC[C@@H](N)Cc3ccccc3)nc(-c3ccncc3)nc12
The pIC50 of the first is lower: ≤ 6.00 for the first, > 7.00 for the second. The second is the more potent here.

`N#Cc1csc2c(NC[C@@H](N)Cc3ccccc3)nc(-c3ccncc3)nc12` and `C#Cc1csc2c(NC[C@@H](N)Cc3ccccc3)nc(-c3ccncc3)nc12` cannot be ordered by pIC50: > 7.00 for the first, > 7.00 for the second.

`N[C@H](CNc1nc(-c2ccncc2F)nc2c(Br)csc12)Cc1ccccc1` and `N[C@H](CNc1nc(-c2ccncc2F)nc2c(C#CCO)csc12)Cc1ccccc1` cannot be ordered by pIC50: > 7.00 for the first, > 7.00 for the second.

`N[C@H](CNc1nc(-c2ccncc2)nc2c(C#CCCO)csc12)Cc1ccccc1` and `N[C@H](CNc1nc(-c2ccncc2)nc2c(C#CCO)csc12)Cc1ccccc1` cannot be ordered by pIC50: > 7.00 for the first, > 7.00 for the second.

`N[C@H](CNc1nc(-c2ccncc2)nc2sc3c(c12)CCCC3)Cc1ccccc1O` and `Cc1sc2c(NC[C@@H](N)Cc3ccccc3)nc(-c3ccncc3)nc2c1Br` cannot be ordered by pIC50: > 7.00 for the first, > 7.00 for the second.

`C[C@H](O)C#Cc1csc2c(NC[C@@H](N)Cc3ccccc3)nc(-c3ccncc3)nc12` and `CC(O)C#Cc1csc2c(NC[C@@H](N)Cc3ccccc3)nc(-c3ccncc3)nc12` (stereo partly drawn) cannot be ordered by pIC50: > 7.00 for the first, > 7.00 for the second.

`N[C@H](CNc1nc(-c2ccncc2)nc2c(Nc3ccccn3)csc12)Cc1ccccc1` and `N[C@H](CNc1nc(-c2ccncc2)nc2c(Nc3ccon3)csc12)Cc1ccccc1` cannot be ordered by pIC50: > 7.00 for the first, > 7.00 for the second.

First: F[C@H]1NCC[C@H]1Nc1nc(-c2ccncc2)nc2ccsc12
Second: Brc1csc2c(N[C@@H]3CCNC3)nc(-c3ccncc3)nc12
The pIC50 of the first is lower: ≤ 5.00 for the first, > 7.00 for the second.

`N[C@H](CNc1nc(-c2ccncc2)nc2c(-c3cn[nH]n3)csc12)Cc1ccccc1` and `Cc1cc(-c2csc3c(NC[C@@H](N)Cc4ccccc4)nc(-c4ccncc4)nc23)n[nH]1` cannot be ordered by pIC50: > 7.00 for the first, > 7.00 for the second.

`N[C@H](CNc1nc(-c2ccncc2)nc2c(C#Cc3cc[nH]n3)csc12)Cc1ccccc1` and `CC#Cc1csc2c(NC[C@@H](N)Cc3ccccc3)nc(-c3ccncc3)nc12` cannot be ordered by pIC50: > 7.00 for the first, > 7.00 for the second.

`C[C@H](O)C#Cc1csc2c(N[C@@H]3CCNC3)nc(-c3ccncc3)nc12` and `c1cc(-c2nc(N[C@@H]3CCNC3)c3scc(-c4ccn[nH]4)c3n2)ccn1` cannot be ordered by pIC50: > 7.00 for the first, > 7.00 for the second.

`N[C@H](CNc1nc(-c2ccncc2)nc2c(Cl)csc12)Cc1ccccc1` and `N[C@H](CNc1nc(-c2ccncc2)nc2c(Br)csc12)Cc1ccccc1` cannot be ordered by pIC50: > 7.00 for the first, > 7.00 for the second.

`COCC#Cc1csc2c(NC[C@@H](N)Cc3ccccc3)nc(-c3ccncc3)nc12` and `N[C@H](CNc1nc(-c2ccncc2)nc2c(C#CCF)csc12)Cc1ccccc1` cannot be ordered by pIC50: > 7.00 for the first, > 7.00 for the second.

`C[C@@H](F)C#Cc1csc2c(NC[C@@H](N)Cc3ccccc3)nc(-c3ccncc3)nc12` and `C[C@@H](O)C#Cc1csc2c(NC[C@@H](N)Cc3ccccc3)nc(-c3ccncc3)nc12` cannot be ordered by pIC50: > 7.00 for the first, > 7.00 for the second.

`N[C@H](CNc1nc(-c2ccncc2)nc2c(-c3ccn[nH]3)csc12)Cc1ccccc1` and `CCc1cc(-c2csc3c(NC[C@@H](N)Cc4ccccc4)nc(-c4ccncc4)nc23)[nH]n1` cannot be ordered by pIC50: > 7.00 for the first, > 7.00 for the second.

First: N[C@H](CNc1nc(-c2ccncc2)nc2c(NC(=O)C3CCCC3)csc12)Cc1ccccc1
Second: N[C@H](CNc1nc(-c2ccncc2)nc2c(C3CC3)csc12)Cc1ccccc1
The pIC50 of the first is lower: ≤ 5.00 for the first, > 7.00 for the second.

`C=Cc1csc2c(NC[C@@H](N)Cc3ccccc3)nc(-c3ccncc3)nc12` and `C/C=C\c1csc2c(NC[C@@H](N)Cc3ccccc3)nc(-c3ccncc3)nc12` cannot be ordered by pIC50: > 7.00 for the first, > 7.00 for the second.

`CC(C)(O)C#Cc1csc2c(NC[C@@H](N)Cc3ccccc3)nc(-c3ccncc3)nc12` and `CC(O)CC#Cc1csc2c(NC[C@@H](N)Cc3ccccc3)nc(-c3ccncc3)nc12` (stereo partly drawn) cannot be ordered by pIC50: > 7.00 for the first, > 7.00 for the second.

Going from `N[C@H](CNc1nc(-c2ccncc2)nc2c(-c3ccccc3Cl)c(C(F)(F)F)sc12)Cc1ccccc1` to `Cc1sc2c(NC[C@@H](N)Cc3ccccc3)nc(-c3ccncc3)nc2c1-c1ccn[nH]1`, the pIC50 rises from ≤ 5.00 to > 7.00. The second is the more potent here.

`N[C@H](CNc1nc(-c2ccncc2)nc2c(/C=C/C3CC3)csc12)Cc1ccccc1` and `N[C@H](CNc1nc(-c2ccncc2)nc2c(/C=C/C(=O)O)csc12)Cc1ccccc1` cannot be ordered by pIC50: > 7.00 for the first, ≥ 6.00 for the second.

`N[C@H](CNc1nc(-c2ccncc2)nc2c(C#CC3(O)CCC3)csc12)Cc1ccccc1` and `N[C@H](CNc1nc(-c2ccncc2)nc2c(C#CC3(O)CC3)csc12)Cc1ccccc1` cannot be ordered by pIC50: > 7.00 for the first, > 7.00 for the second.

`N[C@H](CNc1nc(-c2ccncc2F)nc2c(-c3cc[nH]n3)csc12)Cc1ccccc1` and `CNC(=O)c1csc2c(NC[C@@H](N)Cc3ccccc3)nc(-c3ccncc3)nc12` cannot be ordered by pIC50: > 7.00 for the first, > 7.00 for the second.

`Cc1sc2c(NC[C@@H](N)Cc3ccccc3)nc(-c3ccncc3)nc2c1C#CC(C)(C)O` and `N[C@H](CNc1nc(-c2ccncc2)nc2c(C#CC3CC3)csc12)Cc1ccccc1` cannot be ordered by pIC50: > 7.00 for the first, > 7.00 for the second.

Going from `CC(C)(C)OC(=O)N1CCc2c(sc3nc(-c4ccncc4)nc(NCCN)c23)C1` to `N[C@H](CNc1nc(-c2ccncc2)nc2c(C#CC3(O)CCCC3)csc12)Cc1ccccc1`, the pIC50 rises from ≤ 5.00 to > 7.00. The second is the more potent here.

`CC(C)S(=O)(=O)c1cccc(Nc2cc(-c3nc(N[C@@H]4CCNC4)c4sccc4n3)ccn2)c1` was tested, and the pIC50 was ≤ 6.00.
